Assays:
Format in all cases: cell-based
[1] = tested on: SW48 cells (wt); experiment: Cell viability assay (CellTiter-Glo), SW48 cells; conditions: Homo sapiens, 72 h; SW48 cells, 3 days incubation, CellTiter-Glo luminescence; read-out: Inhibition of Cancerous Cells IC50 SW48 (wt)
Experimental: (§1) H358, H23, SW48, and AsPC-1 cells were cultured in RPMI 1640 media supplemented with 10% fetal bovine serum, streptomycin, and penicillin. Lovo and SW480 cells were cultured in DMEM media supplemented with 10% fetal bovine serum, streptomycin, and penicillin. The cell lines were plated in their respective medium supplemented with 2.5% fetal bovine serum, streptomycin, and penicillin. All cell lines were plated in white walled 96-well plates at 2,000 cells/well or 384-well plates at 500 cells/well, except Lovo, which were plated at 4,000 or 1,000 cells/well, respectively. The cells were incubated in DMSO (control) or a compound for 3 days at 37° C. under 5% CO2. A CELLTITER-GLO® reagent (100 μL) was then added to each well. After a 10 min incubation with shaking, luminescence was measured using an ENVISION® multimode plate reader.

[2] = tested on: SW480 cells (G12V); experiment: Cell viability assay (CellTiter-Glo), SW480 cells; conditions: Homo sapiens, 72 h; SW480 cells, 3 days incubation, CellTiter-Glo luminescence; read-out: Inhibition of Cancerous Cells IC50 SW480 (G12V)
Experimental: as §1

[3] = tested on: Lovo cells (G13D); experiment: Cell viability assay (CellTiter-Glo), Lovo cells; conditions: Homo sapiens, 72 h; Lovo cells, 3 days incubation, CellTiter-Glo luminescence; read-out: Inhibition of Cancerous Cells IC50 Lovo (G13D)
Experimental: as §1

[4] = tested on: H358 cells (G12C); experiment: Cell viability assay (CellTiter-Glo), H358 cells; conditions: Homo sapiens, NCI-H358, 72 h; H358 cells, 3 days incubation, CellTiter-Glo luminescence; read-out: Inhibition of Cancerous Cells IC50 H358 (G12C)
Experimental: as §1

CNCc1ccccc1-c1csc([C@@H](C)Nc2nc(C)nc3cc(OCCCCCCCN4CCC(c5cc(F)cc6c5CN(C5CCC(=O)NC5=O)C6=O)CC4)c(OC)cc23)c1 (stereo partly drawn) [Compound A15, 3-(6-Fluoro-4-(1-(7-((6-methoxy-2-methyl-4-(((R)-1-(4-(2-((methylamino)-methyl)phenyl)thiophen-2-yl)ethyl)amino)quinazolin-7-yl)oxy)heptyl)piperidin-4-yl)-1-oxoisoindolin-2-yl)piperidine-2,6-dione]
IC50 [1]: 410 nM
IC50 [2]: 370 nM
IC50 [3]: 260 nM
IC50 [4]: 550 nM

COc1ccc(C2=N[C@@H](c3ccc(Cl)cc3)[C@@H](c3ccc(Cl)cc3)N2C(=O)N2CCN(CC(=O)NCCCCCCCCCCCCOc3cc4nc(C)nc(N[C@H](C)c5cccc(Br)c5)c4cc3OC)CC2)c(OC(C)C)c1 [Compound C6, 2-(4-((4S,5R)-4,5-Bis(4-chlorophenyl)-2-(2-isopropoxy-4-methoxyphenyl)-4,5-dihydro-1H-imidazole-1-carbonyl)piperazin-1-yl)-N-(12-((4-(((R)-1-(3-bromophenyl)ethyl)-amino)-6-methoxy-2-methylquinazolin-7-yl)oxy)dodecyl)acetamide]
IC50 [1]: > 10000 nM
IC50 [2]: > 10000 nM
IC50 [3]: > 10000 nM
IC50 [4]: > 10000 nM

COc1ccc(C2=N[C@@H](c3ccc(Cl)cc3)[C@@H](c3ccc(Cl)cc3)N2C(=O)N2CCN(CC(=O)NCCCCCCCCCCOc3cc4nc(C)nc(N[C@H](C)c5cccc(Br)c5)c4cc3OC)CC2)c(OC(C)C)c1 [Compound C5, 2-(4-((4S,5R)-4,5-Bis(4-chlorophenyl)-2-(2-isopropoxy-4-methoxyphenyl)-4,5-dihydro-1H-imidazole-1-carbonyl)piperazin-1-yl)-N-(10-((4-(((R)-1-(3-bromophenyl)ethyl)-amino)-6-methoxy-2-methylquinazolin-7-yl)oxy)decyl)acetamide]
IC50 [1]: > 10000 nM
IC50 [2]: > 10000 nM
IC50 [3]: > 10000 nM
IC50 [4]: > 10000 nM

COc1cc2c(N[C@H](C)c3cccc(Br)c3)nc(C)nc2cc1OCCCCCCCCCCCN1CCC(c2cc3c(cc2F)C(=O)N(C2CCC(=O)NC2=O)C3)CC1 (stereo partly drawn) [Compound A24, 3-(5-(1-(11-((4-(((R)-1-(3-Bromophenyl)ethyl)amino)-6-methoxy-2-methyl-quinazolin-7-yl)oxy)undecyl)piperidin-4-yl)-6-fluoro-1-oxoisoindolin-2-yl)piperidine-2,6-dione]
IC50 [1]: 1300 nM
IC50 [2]: 550 nM
IC50 [3]: 400 nM
IC50 [4]: 1200 nM

COc1ccc(C2=N[C@@H](c3ccc(Cl)cc3)[C@@H](c3ccc(Cl)cc3)N2C(=O)N2CCN(CC(=O)NCCCCCCCCOc3cc4nc(C)nc(N[C@H](C)c5cccc(Br)c5)c4cc3OC)C(=O)C2)c(OC(C)C)c1 [Compound C2, 2-(4-((4S,5R)-4,5-bis(4-chlorophenyl)-2-(2-isopropoxy-4-methoxyphenyl)-4,5-dihydro-1H-imidazole-1-carbonyl)-2-oxopiperazin-1-yl)-N-(8-((4-(((R)-1-(3-bromophenyl)-ethyl)amino)-6-methoxy-2-methylquinazolin-7-yl)oxy)octyl)acetamide]
IC50 [1]: > 10000 nM
IC50 [2]: > 10000 nM
IC50 [3]: > 10000 nM
IC50 [4]: > 10000 nM

COc1cc2c(N[C@H](C)c3cccc(Br)c3)nc(C)nc2cc1OCCCCCN1CCN(C(=O)CNc2cc(F)cc3c2CN(C2CCC(=O)NC2=O)C3=O)CC1 (stereo partly drawn) [Compound A55, 3-(4-((2-(4-(5-((4-(((R)-1-(3-Bromophenyl)ethyl)amino)-6-methoxy-2-methyl-quinazolin-7-yl)oxy)pentyl)piperazin-1-yl)-2-oxoethyl)amino)-6-fluoro-1-oxoisoindolin-2-yl)piperidine-2,6-dione]
IC50 [1]: 1400 nM
IC50 [2]: 1800 nM
IC50 [3]: 640 nM
IC50 [4]: 2000 nM

COc1cc2c(N[C@H](C)c3cccc(Br)c3)nc(C)nc2cc1OCCCCCCCCCCNC(=O)[C@H](CC(C)C)NC(=O)[C@@H](O)[C@H](N)Cc1ccccc1 [Compound B8, (S)-2-((2S,3R)-3-Amino-2-hydroxy-4-phenylbutanamido)-N-(10-((4-(((R)-1-(3-bromophenyl)ethyl)amino)-6-methoxy-2-methylquinazolin-7-yl)oxy)decyl)-4-methylpentanamide]
IC50 [1]: 1000 nM
IC50 [2]: 550 nM
IC50 [3]: 390 nM
IC50 [4]: 1200 nM

COc1cc2c(N[C@H](C)c3cccc(Br)c3)nc(C)nc2cc1OCCCCCN1CCC(c2cc3c(cc2F)C(=O)N(C2CCC(=O)NC2=O)C3)CC1 (stereo partly drawn) [Compound A21, 3-(5-(1-(5-((4-(((R)-1-(3-Bromophenyl)ethyl)amino)-6-methoxy-2-methyl-quinazolin-7-yl)oxy)pentyl)piperidin-4-yl)-6-fluoro-1-oxoisoindolin-2-yl)piperidine-2,6-dione]
IC50 [1]: 430 nM
IC50 [2]: 430 nM
IC50 [3]: 380 nM
IC50 [4]: 1100 nM

COc1cc2c(N[C@H](C)c3cccc(Br)c3)nc(C)nc2cc1OCCCCCCC(=O)N1CCC(CN2CCN(c3cc4c(cc3F)C(=O)N(C3CCC(=O)NC3=O)C4=O)CC2)CC1 (stereo partly drawn) [Compound A33, 5-(4-((1-(7-((4-(((R)-1-(3-Bromophenyl)ethyl)amino)-6-methoxy-2-methyl-quinazolin-7-yl)oxy)heptanoyl)piperidin-4-yl)methyl)piperazin-1-yl)-2-(2,6-dioxopiperidin-3-yl)-6-fluoroisoindoline-1,3-dione]
IC50 [1]: 3300 nM
IC50 [2]: 570 nM
IC50 [3]: 180 nM
IC50 [4]: > 10000 nM

CNCc1ccccc1-c1csc([C@@H](C)Nc2nc(C)nc3cc(OCCCCCCCN4CCC(c5cc(F)cc6c5CN(C5CCC(=O)N(C)C5=O)C6=O)CC4)c(OC)cc23)c1 (stereo partly drawn) [Compound A52, 3-(6-Fluoro-4-(1-(7-((6-methoxy-2-methyl-4-(((R)-1-(4-(2-((methylamino)-methyl)phenyl)thiophen-2-yl)ethyl)amino)quinazolin-7-yl)oxy)heptyl)piperidin-4-yl)-1-oxoisoindolin-2-yl)-1-methylpiperidine-2,6-dione]
IC50 [1]: 170 nM
IC50 [2]: 170 nM
IC50 [3]: 42 nM
IC50 [4]: 210 nM

CNCc1ccccc1-c1csc([C@@H](C)Nc2nc(C)nc3cc(OCCCCCCCN4CCC(c5cc6c(cc5F)C(=O)N(C5CCC(=O)NC5=O)C6)CC4)c(OC)cc23)c1 (stereo partly drawn) [Compound A25, 3-(6-Fluoro-5-(1-(7-((6-methoxy-2-methyl-4-(((R)-1-(4-(2-((methylamino)-methyl)phenyl)thiophen-2-yl)ethyl)amino)quinazolin-7-yl)oxy)heptyl)piperidin-4-yl)-1-oxoisoindolin-2-yl)piperidine-2,6-dione]
IC50 [1]: 420 nM
IC50 [2]: 370 nM
IC50 [3]: 290 nM
IC50 [4]: 510 nM

COc1cc2c(N[C@H](C)c3cccc(Br)c3)nc(C)nc2cc1OCCCCCCCC(=O)NCc1ccc2c(c1)CN(C1CCC(=O)NC1=O)C2=O (stereo partly drawn) [Compound A8, 8-((4-(((R)-1-(3-Bromophenyl)ethyl)amino)-6-methoxy-2-methylquinazolin-7-yl)oxy)-N-((2-(2,6-dioxopiperidin-3-yl)-1-oxoisoindolin-5-yl)methyl)octanamide]
IC50 [1]: 400 nM
IC50 [2]: 2100 nM
IC50 [3]: 970 nM
IC50 [4]: 1600 nM

COc1ccc(C2=N[C@@H](c3ccc(Cl)cc3)[C@@H](c3ccc(Cl)cc3)N2C(=O)N2CCN(CC(=O)NCCCCCCCCCCOc3cc4nc(C)nc(N[C@H](C)c5cccc(Br)c5)c4cc3OC)C(=O)C2)c(OC(C)C)c1 [Compound C3, 2-(4-((4S,5R)-4,5-Bis(4-chlorophenyl)-2-(2-isopropoxy-4-methoxyphenyl)-4,5-dihydro-1H-imidazole-1-carbonyl)-2-oxopiperazin-1-yl)-N-(10-((4-(((R)-1-(3-bromophenyl)-ethyl)amino)-6-methoxy-2-methylquinazolin-7-yl)oxy)decyl)acetamide]
IC50 [1]: > 10000 nM
IC50 [2]: > 10000 nM
IC50 [3]: > 10000 nM
IC50 [4]: > 10000 nM

COc1cc2c(N[C@H](C)c3cccc(Br)c3)nc(C)nc2cc1OCCCCCCCCCN1CCC(c2cc3c(cc2F)C(=O)N(C2CCC(=O)NC2=O)C3)CC1 (stereo partly drawn) [Compound A23, 3-(5-(1-(9-((4-(((R)-1-(3-Bromophenyl)ethyl)amino)-6-methoxy-2-methyl-quinazolin-7-yl)oxy)nonyl)piperidin-4-yl)-6-fluoro-1-oxoisoindolin-2-yl)piperidine-2,6-dione]
IC50 [1]: 300 nM
IC50 [2]: 290 nM
IC50 [3]: 330 nM
IC50 [4]: 760 nM

COc1cc2c(N[C@H](C)c3cccc(Br)c3)nc(C)nc2cc1OCCCCN1CCN(C(=O)COc2cc(F)cc3c2CN(C2CCC(=O)NC2=O)C3=O)CC1 (stereo partly drawn) [Compound A13, 3-(4-(2-(4-(4-((4-(((R)-1-(3-Bromophenyl)ethyl)amino)-6-methoxy-2-methyl-quinazolin-7-yl)oxy)butyl)piperazin-1-yl)-2-oxoethoxy)-6-fluoro-1-oxoisoindolin-2-yl)-piperidine-2,6-dione]
IC50 [1]: 5900 nM
IC50 [2]: 6600 nM
IC50 [3]: 9800 nM
IC50 [4]: 7400 nM
